{"source": "patent US20090054353A1", "about": "“MANNOSYL-1 PHOSPHATES, PREPARATION METHOD AND THERAPEUTIC USE, IN PARTICULAR AGAINST THE CDG-IA SYNDROME” (priority 2006, published 2009)", "key": {"[1]": {"test_system": "lymphoblasts of CDG-Ia diseases", "test": "inhibition of incorporation of 2-[3H]mannose into cellular glycoconjugates (\"radioactivity\")", "format": "cell-based, human", "details": "dose of 500 μM; for Radioactivity (inhibition, by competition, of the binding of 2-[3H]mannose-1 phosphate): percentage relative to the controls, lymphoblasts of CDG-Ia, 5 trials per product; for effectiveness in inhibiting the incorporation of radioactive mannose into glycoproteins (in words): lymphoblasts, comparison between products", "description": "(§1) The compounds of formula I, II and III were tested as prodrugs (i.e. as intracellular sources of Man-1 P), on the one hand, in order to evaluate their toxicity and, on the other hand, in order to assess their capacity to inhibit the incorporation of 2-[^3H]mannose into cellular glycoconjugates. Indeed, while they can generate Man-1 P in cells, it will be in competition with 2-[^3H]mannose-1 phosphate for entering the pathway for biosynthesis of glycoproteins (see Eklund, E. A., et al. cited above).\n(§2) The products were tested (5 trials per product and per dose) on lymphoblasts of CDG-Ia diseases and their activities (“radioactivity”, i.e. inhibition, by competition, of the binding of 2-[^3H]mannose-1 phosphate; and cell “toxicity”) were assessed as a percentage relative to the controls (10 trials)."}, "[2]": {"test_system": "lymphoblasts of CDG-Ia diseases", "test": "cell toxicity on lymphoblasts", "format": "cell-based", "details": "dose of 500 μM; for cell mortality / toxicity (in words): lymphoblasts, comparison with CP1, CP3 and CP6; for Toxicity (cell toxicity): percentage relative to the controls, lymphoblasts of CDG-Ia, 5 trials per product", "description": "as §1, §2"}}}
{"compound": "CC(=O)OC[C@H]1O[C@H](OP(=O)(OCOC(=O)C(C)(C)C)OCOC(=O)C(C)(C)C)[C@@H](OC(C)=O)[C@@H](OC(C)=O)[C@@H]1OC(C)=O", "note": "[CP1, di(pivaloyloxymethyl) (2,3,4,6-tetra-O-acetyl)-α-D-mannopyranosyl-1] phosphate]", "values": [{"measurement": "Radioactivity (inhibition, by competition, of the binding of 2-[3H]mannose-1 phosphate)", "setting": "[1]", "result": 92, "unit": "%"}, {"measurement": "cell mortality / toxicity (in words)", "setting": "[2]", "result": "at least a doubling of cell mortality"}, {"measurement": "Toxicity (cell toxicity)", "setting": "[2]", "result": 210, "unit": "%"}]}
{"compound": "Benzyl di(2,3,4,6-tetra-O-isobutyryl-α-D-mannopyranosyl-1) phosphate [Ex. 12]", "values": [{"measurement": "effectiveness in inhibiting the incorporation of radioactive mannose into glycoproteins (in words)", "setting": "[1]", "result": "less effective than CP1, CP3 and CP6"}, {"measurement": "Radioactivity (inhibition, by competition, of the binding of 2-[3H]mannose-1 phosphate)", "setting": "[1]", "result": 25, "unit": "%"}, {"measurement": "cell mortality / toxicity (in words)", "setting": "[2]", "result": "a lot less toxic"}, {"measurement": "Toxicity (cell toxicity)", "setting": "[2]", "result": 112, "unit": "%"}]}
{"compound": "CC(C)(C)C(=O)OCOP(=O)(OCOC(=O)C(C)(C)C)O[C@H]1O[C@H](COC(=O)C(C)(C)C)[C@@H](OC(=O)C(C)(C)C)[C@H](OC(=O)C(C)(C)C)[C@@H]1OC(=O)C(C)(C)C", "note": "[CP3, di(pivaloyloxymethyl) (2,3,4,6-tetra-O-pivaloyl-α-D-manno-pyranosyl-1) phosphate]", "values": [{"measurement": "Radioactivity (inhibition, by competition, of the binding of 2-[3H]mannose-1 phosphate)", "setting": "[1]", "result": 90, "unit": "%"}, {"measurement": "cell mortality / toxicity (in words)", "setting": "[2]", "result": "at least a doubling of cell mortality"}, {"measurement": "Toxicity (cell toxicity)", "setting": "[2]", "result": 205, "unit": "%"}]}
{"compound": "CCOC(=O)OC[C@H]1O[C@H](OP(=O)(OCOC(C)=O)OCOC(C)=O)[C@@H](OC(=O)OCC)[C@@H](OC(=O)OCC)[C@@H]1OC(=O)OCC", "note": "[CP6, di(acetyloxymethyl) (2,3,4,6-tetra-O-ethyloxycarbonyl)-α-D-manno-pyranosyl-1) phosphate]", "values": [{"measurement": "Radioactivity (inhibition, by competition, of the binding of 2-[3H]mannose-1 phosphate)", "setting": "[1]", "result": 91, "unit": "%"}, {"measurement": "cell mortality / toxicity (in words)", "setting": "[2]", "result": "at least a doubling of cell mortality"}, {"measurement": "Toxicity (cell toxicity)", "setting": "[2]", "result": 201, "unit": "%"}]}
{"compound": "Di(2,3,4,6-tetra-O-isobutyryl-α-D-mannopyranosyl-1) hydrogen phosphate [Ex. 4]", "values": [{"measurement": "effectiveness in inhibiting the incorporation of radioactive mannose into glycoproteins (in words)", "setting": "[1]", "result": "therapeutically less effective than Ex. 5, Ex. 11, Ex. 12 and Ex. 13"}, {"measurement": "Radioactivity (inhibition, by competition, of the binding of 2-[3H]mannose-1 phosphate)", "setting": "[1]", "result": 100, "unit": "%"}, {"measurement": "cell mortality / toxicity (in words)", "setting": "[2]", "result": "less toxic"}, {"measurement": "Toxicity (cell toxicity)", "setting": "[2]", "result": 100, "unit": "%"}]}
